Values quoted from earlier work in article PMC3517478 (BMC Neurology, 2012).

Legend:
[1] = test system: startle mutations of the glycine receptor; conditions: propofol 1–500 μM; Xenopus laevis oocytes; cited from earlier work
[2] = test system: transgenic mice (tg271Q-300); conditions: 15 mg/kg i.p.; cited from earlier work

CC(C)c1cccc(C(C)C)c1O [propofol]
effect on glycine induced maximal response [1]: increases the glycine induced maximal response | effect on startle symptoms (righting time, tremor) [2]: decreased righting time and abatements in tremor without sedative side effects
